Several values for one entry are separate records, joined by “and”; a condition that tells them apart may be missing. Identical values can stand only once.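 Following 48 hours of exposure in 96-well plates, responses at five concentrations were used to interpolate endpoints linearly. Abbreviation: GI50, concentration required for 50% inhibition of growth. Definition used: TGI = concentration required for complete inhibition of growth.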
Legend:
Test in all cases: DTP human tumour cell line panel, 48 h
PC-3 prostate = system: PC-3 prostate
MOLT-4 leukemia = system: MOLT-4 leukemia
HT29 colon = system: HT29 colon
ACHN renal = system: ACHN renal
NCI-H522 lung = system: NCI-H522 lung
U251 CNS = system: U251 CNS
HL-60(TB) leukemia = system: HL-60(TB) leukemia
LOX IMVI melanoma = system: LOX IMVI melanoma
DMS 114 small cell lung = system: DMS 114 small cell lung
DLD-1 colon = system: DLD-1 colon

Row | Compound | GI50 (PC-3 prostate) | TGI (PC-3 prostate) | GI50 (MOLT-4 leukemia) | TGI (MOLT-4 leukemia) | GI50 (HT29 colon) | TGI (HT29 colon) | GI50 (ACHN renal) | TGI (ACHN renal) | GI50 (NCI-H522 lung) | TGI (NCI-H522 lung) | GI50 (U251 CNS) | TGI (U251 CNS) | GI50 (HL-60(TB) leukemia) | TGI (HL-60(TB) leukemia) | GI50 (LOX IMVI melanoma) | TGI (LOX IMVI melanoma) | TGI (DMS 114 small cell lung) [µM] | TGI (DLD-1 colon) [µM]
1 | CC(=O)C(C=O)C(C)=O.CC(=O)CC(C)=O.CC(=O)CC(C)=O.[Ru] | 13.2 µM | 71.2 µM | 28.6 µM | > 100 µM | 21 µM | > 100 µM | 21 µM | > 100 µM | 16.4 µM | 55.1 µM | 29.1 µM | > 100 µM | 30.4 µM | > 100 µM | 13.6 µM | 80.3 µM |  | 
2 | COC(=O)[C@]12CC[C@@H](C)[C@H](C)[C@@H]1C1=CC[C@@H]3[C@@]4(C)CC(=O)[C@H](O)[C@@](C)(CO)[C@@H]4C(=O)C[C@@]3(C)[C@]1(C)CC2 | 0.931 µM | 15 µM | 10.3 µM | 27.1 µM | 14.5 µM | 30.4 µM | 12.9 µM | 28.3 µM | 4.27 µM | 22.1 µM | 11.7 µM | 25.1 µM | 9.21 µM | 28.4 µM | 12.2 µM | 25.8 µM |  | 
3 | N#CC1C(=O)NC(=O)C1=O (stereo not given) |  |  |  | > 100 µM |  | > 100 µM |  | > 100 µM |  | > 100 µM |  | > 100 µM |  |  |  | > 100 µM | > 100 | 
4 | O=C1NC(=N[C@H](CO)c2ccccc2)S/C1=C\c1ccc2ncccc2c1 | 4.07 µM | > 25 µM | 4.47 µM | 14.8 µM | 6.1 µM | > 25 µM | 4.91 µM | > 24 µM | 1.54 µM | 6.31 µM | 1.96 µM | > 19.8 µM | 4.19 µM | 16.7 µM | 2.41 µM | 22 µM |  | 
5 | COC(=O)/C(=N/NC(C)(C)C)C(C(=O)OC)C(=O)C(=O)Nc1nc2ccc([N+](=O)[O-])cc2s1 (stereo not given) |  |  |  | > 100 µM |  | > 100 µM |  | > 100 µM |  | > 100 µM |  | > 100 µM |  | > 100 µM |  | > 100 µM | > 100 | 
6 | O=C1c2ccccc2C(=O)c2c1ccc1c2N=C(c2ccc(Br)cc2)CC(c2cccc3ccccc23)N1 (stereo not given) |  |  |  |  |  | > 100 µM |  | > 100 µM |  | > 100 µM |  | > 100 µM |  | > 100 µM |  | > 100 µM | > 100 | > 100
7 | CC12CC(=O)C3C(CCC4=CC(=O)CCC43C)C1CC=C2CC(=O)O (stereo not given) |  | > 100 µM |  | > 100 µM |  | > 100 µM |  | > 100 µM |  | > 100 µM |  | > 100 µM |  | > 100 µM |  | > 100 µM |  | 
8 | C[C@H](c1ccccc1)N(CCC(=O)O)C(=O)CCN(C(=O)CCN(C(=O)CCN[C@H](C)c1ccccc1)[C@H](C)c1ccccc1)[C@H](C)c1ccccc1 | > 100 µM | > 100 µM | > 100 µM | > 100 µM | > 100 µM | > 100 µM | > 100 µM | > 100 µM | > 100 µM | > 100 µM | > 100 µM | > 100 µM | > 100 µM | > 100 µM | > 100 µM | > 100 µM |  | 
9 | O=C1/C(=C/c2ccccc2[N+](=O)[O-])COc2ccc(O)c(O)c21 | 0.814 µM | 4.89 µM | 0.431 µM | > 21.8 µM | 0.529 µM | 3.35 µM | 0.278 µM | 0.863 µM | 0.208 µM | 0.509 µM | 0.922 µM | 5.76 µM | 0.745 µM | 8.13 µM | 0.307 µM | 1.3 µM |  | 
10 | N#Cc1ccc(/C=C/C(=O)c2ccccc2)cc1 | 13 µM and 10.7 µM | 31.4 µM and 26.6 µM | 9.4 µM and 6.4 µM | 53.3 µM and > 38.9 µM | 2.33 µM and 2.53 µM | 6.05 µM and 7 µM | 12.3 µM and 16.2 µM | 24.8 µM and 29.8 µM | 10.4 µM and 14.7 µM | 22.4 µM and 31.5 µM | 2.95 µM and 3.76 µM | 9.52 µM and 11.8 µM | 9.07 µM and 3.2 µM | 48.4 µM and > 33.1 µM | 2.41 µM and 3.3 µM | 6.12 µM and 9.23 µM |  | 
11 | Oc1cccc(-c2nc(-c3ccccc3)[nH]c2-c2ccncc2)c1 | > 20.8 µM | > 25 µM | 24.9 µM | > 25 µM | 7.46 µM | > 25 µM | 9.08 µM | > 25 µM | 11.8 µM | > 25 µM | 17.1 µM | > 25 µM | 7.77 µM | 19.4 µM | 8.82 µM | > 25 µM |  | 
12 | Cc1ccc(S(=O)(=O)CC2(Br)CCc3ccccc3C2=O)cc1 (stereo not given) |  | > 100 µM |  | > 100 µM |  | 58.6 µM |  | 38.2 µM |  | 32.7 µM |  | 46.8 µM |  | 87.3 µM |  | > 100 µM |  | 
13 | CCOC(=O)c1cc(-c2ccccc2)[nH]c1N/N=C/c1c(Cl)cccc1Cl | 0.502 µM | 37.5 µM | 4.24 µM | 24.3 µM | 0.836 µM | 16.3 µM | 0.874 µM | > 100 µM | 0.701 µM | > 26.2 µM | 1.25 µM | > 60.4 µM | 0.484 µM | 5.13 µM | 3.05 µM | > 100 µM |  | 
14 | CCCCCCSc1nc(COC(=O)NC)c(COC(=O)NC)n1C |  | > 100 µM |  | > 100 µM |  | > 100 µM |  | > 100 µM |  | > 100 µM |  | > 100 µM |  | > 100 µM |  | > 100 µM |  | 
15 | CNCCN(C)Cc1cn[nH]c1-c1ccc(OC2CC(OCCC3CCOCC3)C2)cc1 (stereo not given) | > 63.4 µM | > 100 µM | > 80.2 µM | > 100 µM | 38.6 µM | > 100 µM | 64.6 µM | > 100 µM | > 100 µM | > 100 µM | 55.2 µM | > 100 µM | > 80.1 µM | > 100 µM | 60.1 µM | > 100 µM |  | 
16 | O=C(Nc1ccccc1)Nc1ccc(Cl)c(Cl)c1 | 2.41 µM | 9.72 µM | 3.58 µM | 86.8 µM | 2.85 µM | 20.2 µM | 3.59 µM | 97.1 µM | 1.69 µM | 7.67 µM | 3.23 µM | 20.8 µM | 3.98 µM | 26.9 µM | 2.51 µM | 16.3 µM |  | 
17 | Nc1nc2ncn(CC(O)COC(=O)c3ccccc3)c2c(=O)[nH]1 (stereo not given) |  |  |  |  |  | > 100 µM |  | > 100 µM |  | > 100 µM |  | > 100 µM |  | > 100 µM |  | > 100 µM | > 100 | > 100

Reference: PubChem BioAssay (NCI)
